In patent publication US7998718B2, “Identification and functional characterization of a novel ribosomal S6 protein kinase” (Ludwig Institute for Cancer Research Ltd., priority 1998, dated 2011):

What was measured:
p70β^S6k (p70β-II) = experiment: S6 kinase assay (40S subunits) on immunoprecipitates of transfected HEK293 cells treated with rapamycin or wortmannin; type: cell-based, human; settings: 30 min, HEK293 cells in DMEM with 10% FCS
Procedure: (§1) FIG. 6A-6B. Effects of rapamycin and wortmannin on p70β^S6k and p70α^S6k. Effects of rapamycin and wortmannin on S6 phosphorylation activity of p70α-I or p70β-II. HEK293 cells were transfected with mock cDNA or plasmids containing FLAG-tagged p70β1 or p70β2 isoforms. After 48 h of transfection, cells were treated with vehicle or indicated concentrations of rapamycin or wortmannin for 30 min. After immunoprecipitation with anti-FLAG antibodies, the kinase activity was determined by a p70 S6 kinase assay using 40S subunits as substrates. The proteins of the reaction mixture were separated by SDS-PAGE, transferred onto PVDF membrane and analyzed by autoradiography (FIGS. 6A and 6B, upper panels). Subsequent immunoblotting with anti-FLAG antibody confirmed the expression of p70α-I (FIG. 6A, lower panel) and p70β-II (FIG. 6B, lower panel). A representative of three experiments is shown. ^32P incorporation into S6 was quantified by PhosphorImager and is expressed in arbitrary units (PI units).
Materials and Methods. Treatment of transfected cells with rapamycin or wortmannin was performed as follows: 48 h after transfection, the cells were treated with various concentrations of rapamycin or wortmannin for 30 min.
Results. […] Thus, the effects of both inhibitors on p70β^S6k activity were examined. […]

p70α^S6k (p70α-I) [1] = experiment: as above; type: cell-based, rat; settings: 30 min, HEK293 cells in DMEM with 10% FCS
Procedure: as §1
Materials and Methods. Restriction enzymes and DNA modification enzymes were obtained from standard commercial sources and used according to manufacturer's recommendations. Oligonucleotides which were used for sequencing of p70β^S6k and various PCR fragments were synthesized by Genosys or Japan Bioservice, Inc. The pcDNA1 and pcDNA3 mammalian expression vectors were from Invitrogen. […]

[2] = system: p70β^S6k (p70β-II isoform); experiment: Stimulation of S6 kinase activity in transfected CHO-IR cells; type: cell-based, human; settings: serum-starved CHO-IR cells
Procedure: (§2) FIG. 5A. CHO-IR cells were transfected with mock (lane 1) or plasmids containing cDNAs of FLAG-tagged p70α-I (lanes 2 and 3) or FLAG-tagged p70β-II (lanes 4 to 7). After serum starvation for 16 hrs, cells were treated with the vehicle (lanes 2 and 4), 10^−7 M insulin for 10 min (lanes 3 and 5), 15% serum for 10 min (lane 6) or 500 nM TPA for 30 min (lane 7). After cell lysis and subsequent immunoprecipitation with anti-FLAG antibodies, immunoprecipitates were subjected to a p70 S6 kinase assay using 40S subunits as substrates. The reaction mixture was separated by SDS-PAGE, transferred onto PVDF membrane. The membrane was analyzed by autoradiography (upper panel) and then immunoblotted with anti-FLAG antibodies (lower panel). A representative of three experiments is shown. ^32P incorporation into S6 was quantified by Molecular Dynamics. PhosphorImager™ and is expressed in arbitrary units (PI units).
(§3) Materials and Methods. HEK293 cells or CHO-IR cells were transfected with plasmids containing p70α^S6k and p70β^S6k sequences using lipofectAMINE under conditions recommended by the manufacturer (Gibco-BRL). Two days later, transfected cells were frozen in liquid nitrogen and stored until lysis. […]
(§4) Results. […] The activation of p70β^S6k (p70β-II isoform) by insulin was analyzed in CHO-IR cells, which stably over expresses the insulin receptor. […]

p70α^S6k (p70α-I) [3] = experiment: as above; type: cell-based, rat; settings: 10^-7 M insulin for 10 min, serum-starved CHO-IR cells
Procedure: as §2, §3, §4

40S ribosomal subunit = experiment: In vitro S6 kinase assay of activated kinase variants expressed in HEK293 cells; type: biochemical; settings: versus wild type p70α^S6k
Procedure: Materials and Method. Activated variants of p70β^S6k and p70α^S6k were made by site-directed mutagenesis. Oligonucleotide primers, specific to the site to be mutated and complimentary to opposite strands of p70β^S6k and p70α^S6k sequences were generated as recommended by manufacturer (Stratagene). Site directed mutagenesis was carried out using pcDNA3/Glu-tag-p70β^S6k and pcDNA3/Glu-tag-p70α^S6k expression vector/plasmids as templates, according to the recommended protocol (Stratagene). All mutations were verified by DNA sequencing. Expression of mutated forms of both kinases was analyzed by immunobloting with anti-Glu-tag antibodies. The activity of normal and mutated forms of both kinases was measured by in vitro S6 kinase assay. 40S ribosomal subunit was used as a substrate in this reaction.
We have generated an activated form of p70β^S6k by substituting putative phosphorylation site Thr 401 with Aspartic acid (Asp) (“p70β^S6k (T401D)”) as shown in FIG. 10.

p70α^S6k = experiment: Stimulation of S6 kinase activity by PDGF in transfected PAE-PDGF-R cells; type: cell-based, rat; settings: 20 ng/ml PDGF BB for 20 min, serum-starved PAE-PDGF-R cells
Procedure: (§5) FIG. 5B. Stimulation of the p70α^S6k and p70β^S6k activity towards ribosomal S6 protein by PDGF in PAE-PDGF-R cells. PAE-PDGF-R cells were transfected with EE-tagged p70α^S6k and p70β^S6k plasmids using lipofectAMINE. After 24 hr, transfected cells were serum-starved for 16 hr and stimulated with 20 ng/ml PDGF BB (Calbiochem) for 20 min. Control cells were treated with the vehicle under the same conditions. After immunoprecipitation with anti-EE antibodies, an in vitro kinase reaction was carried out in the presence of 40S subunits, containing the S6 protein. Reaction mixtures were separated by SDS-PAGE and incorporation of ^32P into S6 protein was measured by PhosphoImager.
(§6) Materials and Methods. HEK293 cells or CHO-IR cells were transfected with plasmids containing p70α^S6k and p70β^S6k sequences using lipofectAMINE under conditions recommended by the manufacturer (Gibco-BRL). Two days later, transfected cells were frozen in liquid nitrogen and stored until lysis. After cell extraction, the lysates were subjected to immunoprecipitation and/or immunoblot analysis. If cells were to be stimulated, they were starved in medium without FCS for 16 h and then stimulated with 10^−7 M insulin for 10 min, 15% FCS for 10 min, 500 nM TPA for 30 min or vehicle alone. PAE-PDGF-R cells were transfected with appropriate plasmids using lipofect under conditions recommended by the manufacturer. […]

[4] = system: p70β^S6k (p70β-II isoform); experiment: as above; type: cell-based, human; settings: 20 ng/ml PDGF BB for 20 min, serum-starved PAE-PDGF-R cells
Procedure: as §5, §6

Molecule: CO[C@H]1C[C@@H]2CC[C@@H](C)[C@@](O)(O2)C(=O)C(=O)N2CCCC[C@H]2C(=O)O[C@H]([C@H](C)C[C@@H]2CC[C@@H](O)[C@H](OC)C2)CC(=O)[C@H](C)/C=C(\C)[C@@H](O)[C@@H](OC)C(=O)[C@H](C)C[C@H](C)/C=C/C=C/C=C/1C [rapamycin]
- inhibition of p70β^S6k (p70β^S6k (p70β-II); 20 nM rapamycin): 46%
- inhibition of the p70α^S6k (p70α^S6k (p70α-I) [1]; 20 nM rapamycin): 92%

Molecule: insulin: hormone used to stimulate CHO-IR cells
- induction of p70β^S6k activity towards ribosomal S6 protein ([2]; 10^-7 M insulin for 10 min): 2.8 fold
- activation of p70α^S6k activity (p70α^S6k (p70α-I) [3]): 3.5 fold

Molecule: COC[C@H]1OC(=O)c2coc3c2[C@@]1(C)C1=C(C3=O)[C@@H]2CCC(=O)[C@@]2(C)C[C@H]1OC(C)=O [wortmannin]
- inhibition of p70β^S6k activity (p70β^S6k (p70β-II); 100 nM wortmannin): 62%
- inhibition of p70α^S6k activity (p70α^S6k (p70α-I) [1]; 100 nM wortmannin): 86%

Molecule: CCCCCCCCCCCCCC(=O)O[C@@H]1[C@@H](C)[C@@]2(O)[C@@H](C=C(CO)C[C@]3(O)C(=O)C(C)=C[C@@H]23)[C@@H]2C(C)(C)[C@]12OC(C)=O [TPA]
- stimulation of p70β^S6k phosphorylation of ribosomal protein S6 ([2]; 500 nM TPA for 30 min): stimulated

Molecule: p70α^S6k (T412D): activated version of p70α^S6k made by site-directed mutagenesis
- S6 kinase activation compared with wild type kinase (40S ribosomal subunit): 18 fold

B1: PDGF: PDGF BB growth factor purchased from Calbiochem (protein, UniProt P01127 82-190, looked up)
Platelet-derived growth …: SLGSLTIAEPAMIAECKTRTEVFEISRRLIDRTNANFLVWPPCVEVQRCSGCCNNRNVQCRPTQVQLRPVQVRKIEIVRKKPIFKKATVTLEDHLACKCETVAAARPVT
modifications: Platelet-derived growth factor subunit B
notes: PDGF BB growth factor purchased from Calbiochem
- activation of p70α^S6k (p70α^S6k): 3.4 fold
- activation of p70β^S6k [4]: 30 fold
